According to PMC7469199, “Immunosuppressive Activities of Novel PLA2 Inhibitors from Xenorhabdus hominickii, an Entomopathogenic Bacterium” (Insects, 2020):

Legend:
[1] = test system: hemocyte phagocytosis of S. exigua; assay: Phagocytosis assay with FITC-labeled E. coli in L5 larvae; format: in vivo, Spodoptera exigua; conditions: for Inhibition of phagocytosis (in words): S. exigua hemocytes; for Median Inhibitory Concentration (IC50), Phagocytosis: injected into L5 larvae with FITC-labeled E. coli
Experimental: For in vivo phagocytosis assay, test chemical (1 µL) and FITC-labeled E. coli (5 µL, 5 × 10^4 cells/µL) were injected to L5 larva. Hemolymph (50 µL) was collected at 15 min after injection and mixed with 50 µL of ice cold ACB. After centrifugation at 700 × g for 3 min at 4 °C, the supernatant plasma was replaced with 100 µL of TC-100 insect cell culture medium (Welgene, Daegu, Korea). Hemocyte suspension (10 µL) was placed onto a slide and over laid with 10 µL glycerol (50%, v/v). Hemocytes undergoing phagocytosis were determined by fluorescence-emitting cells under a fluorescence microscope (Leica, Wetzlar, Germany) at 40× magnification. For in vitro phagocytosis, hemocyte suspension and labeled bacteria mixture (30 µL) were incubated in a dark place for 1 h at room temperature. Hemocytes were then washed three times with PBS by centrifugation at 700× g for 2 min at 4 °C and finally resuspended in TC-100 medium. This hemocyte suspension was observed under the fluorescence microscope in FITC or DIC mode after forming monolayers on glass slides.

[2] = test system: hemocyte nodule formation; assay: Nodulation assay after E. coli injection in L5 larvae; format: in vivo, Spodoptera exigua; conditions: for Median Inhibitory Concentration (IC50), Nodulation: injected into L5 larvae with E. coli, nodules counted after 8 h
Experimental: To assess nodule formation, immune challenge was performed by injecting 3 µL of Escherichia coli Top10 (10^4 cells/larva) (Invitrogen, Madison, WI, USA) through the abdominal proleg of L5 larvae using a microsyringe (Hamilton, Reno, NV, USA). After incubating at 25 °C for 8 h, test insects were dissected to count the number of melanized nodules under a stereo microscope (Stemi SV11, Zeiss, Jena, Germany) at 50× magnification. For chemical test, 1 µL aliquot of test chemical at different concentrations was injected into each larva along with E. coli. AA was injected at 10 μg per larva. Each treatment was independently replicated five times.

S. exigua larvae [3] = assay: Insecticidal activity by injection; format: in vivo, Spodoptera exigua; conditions: for Insecticidal Activities, Injection: median lethal dose by Probit analysis, S. exigua larvae
Experimental: All data for continuous variables were subjected to one-way analysis of variance (ANOVA) using PROG GLM in SAS program. Mortality data were subjected to arcsine transformation and used for ANOVA. Means were compared with the least significant difference (LSD) test at Type I error of 0.05. Median toxicity values such as median lethal dose (LD50), median lethal concentration (LC50), median lethal time (LT50), and median inhibition concentrations (IC50) were calculated by Probit analysis using EPA Probit Analysis Program, ver. 1.5 (U.S. Environmental Protection Agency, Washington, DC, USA). […]

cytosolic PLA2 (cPLA2) = assay: Cytosolic PLA2 (cPLA2) activity; format: biochemical, Spodoptera exigua; conditions: for Median Inhibitory Concentrations (IC50), cPLA2: S. exigua, synthetic compounds; for Potency for inhibiting cPLA2 (in words): based on IC50 values
Experimental: (§1) To characterize PLA2 inhibition by test chemicals, activities of two different PLA2s [secretory PLA2 (sPLA2) and cytosolic PLA2 (cPLA2)] were assessed with methods described by Vatanparast et al..

Sf9 cells = assay: Cytotoxicity test (MTT); format: cell-based; conditions: for Cytotoxicity (MIC, minimum inhibitory concentration): MTT, 24 h at 28 °C
Experimental: Cytotoxicity of each secondary metabolite was evaluated by 3-(4,5 dimethylthiazol-2-yl)-2,5-diphenyl tetrazolium bromide (MTT) assay according to the method described by Mollah et al.. with a slight modification. Briefly, Sf9 cells (1.2 × 10^4 cells in 200 μL of TC-100 medium) were seeded into each 96-well. After adding each test chemical (2.5 μL in DMSO), the plate was incubated at 28 °C for 24 h. Control cells were treated with 2.5 μL of DMSO. After 24 h incubation, 10 μL of MTT (5 mg/mL in PBS) was added to each well and cells were cultured for another 4 h at 28 °C. Formazan granules formed in viable cells were dissolved in 50 μL of DMSO. Absorbance was then measured at 540 nm using a microplate reader (Victor Multilabel Plate Reader, PerkinElmer, Waltham, MA, USA).

[4] = test system: hemocyte PLA2 of S. exigua; assay: Nonspecific (total) hemocyte PLA2 activity, pyrene-labeled phospholipid fluorometric assay; format: biochemical, Spodoptera exigua; conditions: for Inhibitory activity against hemocyte PLA2 (in words): S. exigua hemocyte PLA2, extracts, fractions or synthetic compounds; for Median Inhibitory Concentrations (IC50), Total PLA2: hemocyte extract of S. exigua L5 larvae, synthetic compounds
Experimental: Hemocyte PLA2 activity was fluorometrically determined with a pyrene-labeled phospholipid substrate using a spectrofluorometer (VICTOR multi-label plate reader, PerkinElmer, Waltham, MA, USA) at excitation and emission wavelengths of 345 and 398 nm, respectively. For measuring PLA2 activity, hemolymph was collected from ~10 L5 larvae. Hemocytes and plasma were separated by centrifugation at 800× g for 3 min at 4 °C. Hemocytes were then homogenized in 500 µL of PBS with a polytron (Ultra-Turrax T8, Ika Laboratory, Funkentshort, Germany). After centrifugation at 14,000× g for 5 min at 4 °C, protein concentration of the supernatant was determined by Bradford assay using bovine serum albumin (BSA) as the standard. The reaction mixture was prepared in a 96-well microplate by adding 129 μL of 50 mM Tris buffer (pH 7.0), 2 μL of 1 M CaCl2, and 2 μL of 10% BSA into each well. A sample solution consisted of 5 μL of test bacterial metabolites and 10 μL of hemocyte enzyme extract ([…]). The plate was then incubated at room temperature for 30 min. Enzyme reaction was then initiated by adding pyrene-labeled PL substrate (2 μL) to the reaction mixture.

secretory PLA2 (sPLA2) = assay: Secretory PLA2 (sPLA2) activity; format: biochemical, Spodoptera exigua; conditions: for Median Inhibitory Concentrations (IC50), sPLA2: S. exigua, synthetic compounds; for Potency for inhibiting sPLA2 (in words): based on IC50 values
Experimental: as §1

S. exigua larvae [5] = assay: Feeding toxicity, leaf-dipping method; format: in vivo, Spodoptera exigua; conditions: for Insecticidal Activities, Feeding: median lethal concentration by Probit analysis, leaf-dipping
Experimental: (§2) For the virulence test of X. hominickii, 24 h-cultured cells (10^8 cfu/mL) were diluted with sterile PBS. After surface sterilization with 95% ethanol, each L5 larva was injected with 1 µL of test compound (1 µg/larva) along with bacterial suspension (10^2 cfu/larva). Injection was performed through the first abdominal proleg using a micro syringe. Injected larvae were incubated at room temperature individually in 9 cm Petri dishes. For oral toxicity assay of B. thuringiensis, a small piece (2 × 2 cm) of Chinese cabbage was dipped in 500 ppm of Bt or a mixture of Bt (500 ppm) with 500 ppm of test chemical for 5 min. After a brief (5 min) drying under a dark condition, the treated leaf was supplied to individual test larva in 9 cm Petri dish for 24 h at room temperature. After 24 h, larvae were fed with fresh cabbage leaves. Each treatment was replicated three times with 10 larvae per replication. […] Larvae were considered dead if they were unable to move in a coordinated manner when prodded with a blunt probe.
All data for continuous variables were subjected to one-way analysis of variance (ANOVA) using PROG GLM in SAS program. Mortality data were subjected to arcsine transformation and used for ANOVA. Means were compared with the least significant difference (LSD) test at Type I error of 0.05. Median toxicity values such as median lethal dose (LD50), median lethal concentration (LC50), median lethal time (LT50), and median inhibition concentrations (IC50) were calculated by Probit analysis using EPA Probit Analysis Program, ver. 1.5 (U.S. Environmental Protection Agency, Washington, DC, USA).
These compounds were also tested for their feeding toxicities using a leaf-dipping method.

mammals = conditions: cited from earlier work
S. exigua larvae [6] = assay: Effect on pathogenicity of X. hominickii (co-injection); format: in vivo, Spodoptera exigua; conditions: L5 larvae injected with Xh 10^2 cfu/larva along with inhibitor (5 µg/larva Fig. 7A; 2 µg/larva Fig. S6); 4 days after treatment
Experimental: as §2, with “After surface sterilization with 95% ethanol, each L5 larva was injected with 1 µL of test compound (1 µg/larva) along with bacterial suspension (10^2 cfu/larva).” left out

S. exigua larvae [7] = assay: Effect on pathogenicity of Bacillus thuringiensis (oral, leaf dipping); format: in vivo, Spodoptera exigua; conditions: cabbage leaf dipped in Bt 500 ppm mixed with inhibitor 500 ppm; 4 days after treatment
Experimental: as §2

SMILES	Insecticidal Activities, Injection (S. exigua larvae [3])	Median Inhibitory Concentrations (IC50), cPLA2 (cytosolic PLA2 (cPLA2))	Potency for inhibiting cPLA2 (in words) (cytosolic PLA2 (cPLA2))	Cytotoxicity (MIC, minimum inhibitory concentration) (Sf9 cells)	Inhibitory activity against hemocyte PLA2 (in words) [4]	Median Inhibitory Concentrations (IC50), Total PLA2 [4]	Median Inhibitory Concentrations (IC50), sPLA2 (secretory PLA2 (sPLA2))	Potency for inhibiting sPLA2 (in words) (secretory PLA2 (sPLA2))	Inhibition of phagocytosis (in words) [1]	Median Inhibitory Concentration (IC50), Phagocytosis [1]	Insecticidal Activities, Feeding (S. exigua larvae [5])	Median Inhibitory Concentration (IC50), Nodulation [2]	also measured
CCCCCC=CCC=CCC=CCC=CCCCC(=O)O [AA, 5,8,11,14-eicosatetraenoic acid, reference compound]	–	–	–	–	–	–	–	–	–	–	–	–	Reversal of suppressed phagocytosis by AA addition ([1]; AA 10 µg/larva with the eight compounds): reversed; Rescue of suppressed nodule formation by AA addition ([2]; AA 10 µg/larva co-injected with extract, subfraction or compound and E. coli): significantly (p < 0.05) rescued
N#Cc1ccccc1C(=O)O [CBA, o-cyanobenzoic acid]	54.96 ± 4.03 a µg/larva	0.38 ± 0.03 a µg/mL	least potent	0.50 ± 0.02 c µg/mL	least potent	0.86 ± 0.02 a µg/mL	1.11 ± 0.11 a µg/mL	least potent	least potent	32.50 ± 2.35 a ng/larva	2850.65 ± 80.68 c µg/mL	2.50 ± 0.22 a ng/larva	–
CCCCCCCCOC(=O)c1ccc(C(=O)OCCCCCCCC)cc1 [DOTP, dioctyl terephthalate]	38.89 ± 3.21 b µg/larva	0.06 ± 0.005 e µg/mL	highly potent	0.50 ± 0.01 c µg/mL	–	0.16 ± 0.006 cd µg/mL	0.56 ± 0.05 c µg/mL	–	–	8.70 ± 0.89 b ng/larva	3220.45 ± 90.91 b µg/mL	1.10 ± 0.07 b ng/larva	Toxicity to mammals (in words) (mammals): relatively nontoxic
CCCCCCCCCCCCCCCCCCCCCC [DS, docosane]	49.54 ± 4.55 a µg/larva	0.32 ± 0.02 b µg/mL	–	1.0 ± 0.03 a µg/mL	–	0.81 ± 0.04 b µg/mL	1.22 ± 0.15 a µg/mL	least potent	–	8.40 ± 0.68 b ng/larva	3554.0 ± 100.18 a µg/mL	1.11 ± 0.09 b ng/larva	–
CCCCC(CC)CO (centres unmarked) [EH, 2-ethyl-1-hexanol]	29.90 ± 3.05 c µg/larva	0.11 ± 0.01 µg·days/mL	–	0.20 ± 0.02 e µg/mL	–	0.14 ± 0.01 µg·days/mL	0.05 ± 0.004 f µg/mL	highly potent	–	–	2456.35 ± 50.88 e µg/mL	0.40 ± 0.03 e ng/larva	–
CCOc1cc(O)ccc1OC [EMP, 3-ethoxy-4-methoxyphenol]	18.95 ± 2.61 d µg/larva	0.05 ± 0.004 ef µg/mL	highly potent	0.1 ± 0.01 f µg/mL	most potent	0.04 ± 0.02 e µg/mL	0.03 ± 0.005 f µg/mL	highly potent	highly potent	0.20 ± 0.03 g ng/larva	2100.34 ± 40.19 f µg/mL	0.20 ± 0.02 f ng/larva	Killing of larvae after injection (in words) (S. exigua larvae [3]; individually injected to S. exigua larvae): most potent; Concentration inducing cytotoxicity (Sf9 cells): less than 1 µg/mL; Effect on X. hominickii pathogenicity / insecticidal activity (S. exigua larvae [6]): significantly (p < 0.05) increased; Effect on B. thuringiensis insecticidal activity (S. exigua larvae [7]): significantly (p < 0.05) increased; Feeding (oral) toxicity (in words) (S. exigua larvae [5]; leaf-dipping method): most potent; Inhibition of nodule formation (in words) ([2]; S. exigua L5 larvae, E. coli challenge): high potency
